Biological target: T1, P2X7 receptor (Homo sapiens, UniProt Q99572)
T1 construct: host or cells: SH-SY5Y
T1 sequence (Q99572 1-595): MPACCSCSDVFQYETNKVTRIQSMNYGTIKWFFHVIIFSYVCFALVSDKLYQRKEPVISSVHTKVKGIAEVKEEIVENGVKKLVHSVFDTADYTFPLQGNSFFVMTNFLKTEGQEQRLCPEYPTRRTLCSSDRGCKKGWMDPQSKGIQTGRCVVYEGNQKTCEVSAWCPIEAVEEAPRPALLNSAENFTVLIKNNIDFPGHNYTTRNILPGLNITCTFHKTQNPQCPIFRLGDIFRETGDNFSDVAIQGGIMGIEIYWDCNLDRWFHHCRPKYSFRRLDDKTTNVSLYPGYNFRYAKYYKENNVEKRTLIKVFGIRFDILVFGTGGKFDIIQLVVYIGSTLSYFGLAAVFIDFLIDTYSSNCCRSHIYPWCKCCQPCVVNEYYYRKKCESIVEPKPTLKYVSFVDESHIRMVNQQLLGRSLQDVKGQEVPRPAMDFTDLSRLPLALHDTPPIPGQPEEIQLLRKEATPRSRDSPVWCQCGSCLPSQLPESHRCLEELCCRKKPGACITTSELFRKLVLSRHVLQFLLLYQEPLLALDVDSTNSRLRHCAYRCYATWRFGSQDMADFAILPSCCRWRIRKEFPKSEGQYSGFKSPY
Experiment: P2X7 calcium mobilization assay, high throughput, antagonist activity (Example 4A)
Assay type: cell-based
Details: 50% decrease in the fluorescence response of cells exposed to 80 μM 2′(3′)-O-(4-benzoyl-benzoyl)adenosine 5′-triphosphate; Example 4A; read-out: IC50
How it was run: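 Antagonism was measured as calcium mobilization on FLIPR^TETRA after a 1 h room-temperature compound preincubation of dye-loaded cells. Baseline from no-agonist wells was subtracted from each well's maximum RFU.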

| IC50 | Structure (SMILES) |
| --- | --- |
| < 2000 nM | CC1(C)[C@@H]2CC[C@@H](CNC(=O)c3cccc4nc(CC(=O)N5CC[C@@H](N)C5)cn34)[C@H]1C2 [Compound 588, 2-{2-[(3R)-3-aminopyrrolidin-1-yl]-2-oxoethyl}-N-{[(1R,2R,5R)-6,6-dimethylbicyclo[3.1.1]hept-2-yl]methyl}imidazo [1,2-a]pyridine-5-carboxamide] |
| < 2000 nM | CN(CC1OCCO1)C(=O)c1cn2c(C(=O)NC[C@@H]3CC[C@H]4C[C@@H]3C4(C)C)cccc2n1 [Compound 468, 5-N-{[(1S,2R,5S)-6,6-dimethylbicyclo[3.1.1]hept-2-yl]methyl}-2-N-(1,3-dioxolan-2-ylmethyl)-2-N-methylimidazo[1,2-a]pyridine-2,5-dicarboxamide] |
| < 2000 nM | CC1(C)[C@@H]2CC[C@@H](CNC(=O)c3cccc4nc(CC(=O)NC5CCNCC5)cn34)[C@H]1C2 [Compound 592, N-{[(1R,2R,5R)-6,6-dimethylbicyclo[3.1.1]hept-2-yl]methyl}-2-[2-oxo-2-(piperidin-4-ylamino)ethyl]imidazo [1,2-a]pyridine-5-carboxamide] |
| < 2000 nM | O=C(CC12CC3CC(CC(C3)C1)C2)Nc1cccc2nc(C(=O)N3CCC(CO)CC3)cn12 [Compound 424, 2-adamantan-1-yl-N-(2-{[4-(hydroxymethyl)piperidin-1-yl]carbonyl}imidazo[1,2-a]pyridin-5-yl)acetamide] |

Same assay, conditions: 50% decrease in the fluorescence response of cells exposed to 80 μM of 2′(3′)-O-(4-benzoyl-benzoyl)adenosine 5′-triphosphate; Example 4A; read-out: IC50

| IC50 | Structure (SMILES) |
| --- | --- |
| < 2000 nM | CN(C)CCNC(=O)C1CCCN(C(=O)c2cn3c(C(=O)NCC45CC6CC(CC(C6)C4)C5)cccc3n2)C1 (stereo not drawn) [Compound 704, N-(adamantan-1-ylmethyl)-2-[(3-{[2-(dimethylamino)ethyl]carbamoyl}piperidin-1-yl)carbonyl]imidazo[1,2-a]pyridine-5-carboxamide] |
| < 2000 nM | CC(C(=O)N1CCC[C@@H](NC(=O)OC(C)(C)C)C1)c1cn2c(C(=O)NCC34CC5CC(CC(C5)C3)C4)cccc2n1 (stereo in doubt) [Compound 750, tert-butyl [1-(2-{5-[(adamantan-1-ylmethyl)carbamoyl]imidazo[1,2-a]pyridin-2-yl}propanoyl)piperidin-3-yl]carbamate] |
| < 2000 nM | CC(C)CC(CNC(=O)c1cccc2nc(CSCCN)cn12)c1cccnc1 (stereo not drawn) [Compound 744, 2-{[(2-aminoethyl)thio]methyl}-N-(4-methyl-2-pyridin-3-ylpentyl)imidazo [1,2-a]pyridine-5-carboxamide] |
| < 2000 nM | COCCCN(C(=O)c1cn2c(C(=O)NCC34CC5CC(CC(C5)C3)C4)cccc2n1)C1CCNCC1 [Compound 619, 5-N-(adamantan-1-ylmethyl)-2-N-(3-methoxypropyl)-2-N-piperidin-4-ylimidazo[1,2-a]pyridine-2,5-dicarboxamide] |
| < 2000 nM | CN1CCC(N(C)C(=O)c2cn3c(C(=O)NCC45CC6CC(CC(C6)C4)C5)cccc3n2)CC1 [Compound 671, 5-N-(adamantan-1-ylmethyl)-2-N-methyl-2-N-(1-methylpiperidin-4-yl)imidazo[1,2-a]pyridine-2,5-dicarboxamide] |
| < 2000 nM | O=C(NCC12CC3CC(CC(C3)C1)C2)c1cccc2nc(Cc3nnn[nH]3)cn12 [Compound 685, N-(adamantan-1-ylmethyl)-2-(1H-tetrazol-5-ylmethyl)imidazo[1,2-a]pyridine-5-carboxamide] |
| < 2000 nM | CN(C)CCCN(C)C(=O)c1cn2c(C(=O)NCC34CC5CC(CC(C5)C3)C4)cccc2n1 [Compound 670, 5-N-(adamantan-1-ylmethyl)-2-N-[3-(dimethylamino)propyl]-2-N-methylimidazo[1,2-a]pyridine-2,5-dicarboxamide] |
| < 2000 nM | O=C(NCC12CC3CC(CC(C3)C1)C2)c1cccc2nc(C(Cc3ccccn3)C(=O)O)cn12 (stereo not drawn) [Compound 732, 2-{5-[(adamantan-1-ylmethyl)carbamoyl]imidazo[1,2-a]pyridin-2-yl}-3-pyridin-2-ylpropanoic acid] |
| < 2000 nM | CN(C)C1CCCN(C(=O)CCc2cn3c(C(=O)NCC45CC6CC(CC(C6)C4)C5)cccc3n2)C1 (stereo not drawn) [Compound 754, N-(adamantan-1-ylmethyl)-2-{3-[3-(dimethylamino)piperidin-1-yl]-3-oxopropyl} imidazo[1,2-a] pyridine-5-carboxamide] |
| < 2000 nM | Cc1ccc(C(CNC(=O)c2cccc3nc(CN4CC[C@@H](NC(=O)OC(C)(C)C)C4)cn23)CC(C)C)cc1 (stereo partly drawn) [Compound 765, tert-butyl {1-[(5-{[4-methyl-2-(4-methylphenyl)pentyl]carbamoyl}imidazo [1,2-a]pyridin-2-yl)methyl]pyrrolidin-3-yl}carbamate] |

Same assay, conditions: 50% decrease in the fluorescence response of cells exposed to 80 μM of 2′(3′)-O-(4-benzoyl-benzoyl)adenosine 5′-triphosphate; determined as in Example 4A; read-out: IC50

| IC50 | Structure (SMILES) |
| --- | --- |
| < 2000 nM | CC(C)(C)CCNC(=O)Cc1cn2c(C(=O)NCC3(c4ccc(Cl)cc4)CCOCC3)cccc2n1 [Compound 882, N-{[4-(4-chlorophenyl)tetrahydro-2H-pyran-4-yl]methyl}-2-{2-[(3,3-dimethylbutyl)amino]-2-oxoethyl}imidazo[1,2-a]pyridine-5-carboxamide] |
| < 2000 nM | O=C(Cc1cn2c(C(=O)NCC34CC5CC(CC(C5)C3)C4)cccc2n1)N[C@@H]1CCCNC1 [Compound 838, N-(adamantan-1-ylmethyl)-2-{2-oxo-2-[(3R)-piperidin-3-ylamino]ethyl} imidazo[1,2-a] pyridine-5-carboxamide] |
| < 2000 nM | O=C(NCC12CC3CC(CC(C3)C1)C2)c1cccc2nc(CSc3nnn[nH]3)cn12 [Compound 853, N-(adamantan-1-ylmethyl)-2-[(1H-tetrazol-5-ylthio)methyl] imidazo [1,2-a]pyridine-5-carboxamide] |
| < 2000 nM | O=C(NCC1(c2ccc(Cl)cc2)CCCCC1)c1cccc2nc(CC(=O)N3CCSCC3)cn12 [Compound 891, N-{[1-(4-chlorophenyl)cyclohexyl]methyl}-2-(2-oxo-2-thiomorpholin-4-ylethyl)imidazo [1,2-a]pyridine-5-carboxamide] |

Same assay, conditions: P2X7 calcium mobilization, Example 4A; 50% decrease in the fluorescence response of cells exposed to 80 μM of (2′(3′)-O-(4-benzoyl-benzoyl)adenosine 5′-triphosephate); read-out: IC50

| IC50 | Structure (SMILES) |
| --- | --- |
| < 2000 nM | COc1ccc(C2(CNC(=O)c3cccc4nc(C(F)(F)F)cn34)CCCCC2)cc1 [Compound 1026, N-{[1-(4-methoxyphenyl)cyclohexyl]methyl}-2-(trifluoromethyl) imidazo [1,2-a]pyridine-5-carboxamide] |

Same assay, conditions: SH-SY5Y cells; 50% decrease in fluorescence response to 80 μM BzATP; read-out: IC50

| IC50 | Structure (SMILES) |
| --- | --- |
| < 2000 nM | COCCC1CCN(C(=O)Cc2cn3c(C(=O)NCC45CC6CC(CC(C6)C4)C5)cccc3n2)CC1 [Compound 35, N-(adamantan-1-ylmethyl)-2-{2-[4-(2-methoxyethyl)piperidin-1-yl]-2-oxoethyl}imidazo[1,2-a]pyridine-5-carboxamide] |
| < 2000 nM | CN(C)C(=O)Cc1cn2c(C(=O)NCC34CC5CC(CC(C5)C3)C4)cccc2n1 [Compound 165, N-(adamantan-1-ylmethyl)-2-[2-(dimethylamino)-2-oxoethyl]imidazo[1,2-a]pyridine-5-carboxamide] |
| < 2000 nM | CC(C)OCCNC(=O)Cc1cn2c(C(=O)NCC34CC5CC(CC(C5)C3)C4)cccc2n1 [Compound 156, N-(adamantan-1-ylmethyl)-2-{2-[(2-isopropoxyethyl)amino]-2-oxoethyl}imidazo[1,2-a]pyridine-5-carboxamide] |
| < 2000 nM | CC(O)CCNC(=O)Cc1cn2c(C(=O)NCC34CC5CC(CC(C5)C3)C4)cccc2n1 (stereo not drawn) [Compound 31, N-(adamantan-1-ylmethyl)-2-{2-[(3-hydroxybutyl)amino]-2-oxoethyl}imidazo[1,2-a]pyridine-5-carboxamide] |
| < 2000 nM | CS(=O)(=O)N1CCN(C(=O)c2cn3c(C(=O)NCC45CC6CC(CC(C6)C4)C5)cccc3n2)CC1 [Compound 97, N-(adamantan-1-ylmethyl)-2-{[4-(methyl-sulfonyl)piperazin-1-yl]carbonyl}imidazo[1,2-a]pyridine-5-carboxamide] |
| < 2000 nM | O=C(NCC12CC3CC(CC(C3)C1)C2)c1cccc2nc(CCN3C(=O)c4ccccc4C3=O)cn12 [Compound 137, N-(adamantan-1-ylmethyl)-2-[2-(1,3-dioxo-1,3-dihydro-2H-isoindol-2-yl)ethyl]imidazo[1,2-a]pyridine-5-carboxamide] |

Same assay, conditions: fluorescence response of cells exposed to 80 μM 2′(3′)-O-(4-benzoyl-benzoyl)adenosine 5′-triphosphate; Example 4A; read-out: IC50

| IC50 | Structure (SMILES) |
| --- | --- |
| < 2000 nM | CCC(COC)NC(=O)Cc1cn2c(C(=O)NCC(CC(C)C)c3ccccc3)cccc2n1 (stereo not drawn) [Compound 231, 2-(2-{[1-(methoxymethyl)propyl]amino}-2-oxoethyl)-N-(4-methyl-2-phenylpentyl) imidazo [1,2-a]pyridine-5-carboxamide] |
| < 2000 nM | O=C(NCC12CC3CC(CC(C3)C1)C2)c1cccc2nc(CN3CCOCC3)cn12 [Compound 291, N-(adamantan-1-ylmethyl)-2-(morpholin-4-ylmethyl)imidazo[1,2-a]pyridine-5-carboxamide] |

Reference: patent US8431593B2, “Heteroaryl amide derivatives” (H. Lundbeck A/S, priority 2006, dated 2013)
